The values below come from patent publication US6528494B2 (priority 1996, dated 2003).

Holding throughout (type): cell-based
The target in one test is T1, adenosine 1 receptor (Homo sapiens, UniProt P30542).
T1 sequence (P30542 1-326): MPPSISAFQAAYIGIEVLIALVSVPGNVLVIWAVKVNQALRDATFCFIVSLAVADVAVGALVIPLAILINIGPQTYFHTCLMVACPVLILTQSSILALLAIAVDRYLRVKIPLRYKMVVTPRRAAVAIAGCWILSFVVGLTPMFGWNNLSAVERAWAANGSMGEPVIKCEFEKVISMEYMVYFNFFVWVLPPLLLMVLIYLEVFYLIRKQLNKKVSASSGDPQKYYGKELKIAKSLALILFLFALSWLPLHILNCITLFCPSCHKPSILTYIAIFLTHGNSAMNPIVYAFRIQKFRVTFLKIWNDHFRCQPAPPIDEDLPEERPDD
The test can be described thus: Agonist activity against adenosine 1 receptor (CHO cells, forskolin-enhanced cAMP/SPAP reporter). As to conditions: CHO cells transfected with human receptor; forskolin-enhanced cAMP via SPAP; mean of all the versions tested. On the procedure:
(§1) (1) Agonist activity against adenosine 2a, adenosine 1 and adenosine 3 receptor subtypes.
(§2) The effect of test compounds was determined by their effects on basal levels of cAMP (A2a) or on forskolin-enhanced cAMP (A1 and A3) as reflected by changes in levels of SPAP.

The next test has as its target T2, adenosine 3 receptor (Homo sapiens, UniProt P0DMS8).
T2 sequence (P0DMS8 1-318): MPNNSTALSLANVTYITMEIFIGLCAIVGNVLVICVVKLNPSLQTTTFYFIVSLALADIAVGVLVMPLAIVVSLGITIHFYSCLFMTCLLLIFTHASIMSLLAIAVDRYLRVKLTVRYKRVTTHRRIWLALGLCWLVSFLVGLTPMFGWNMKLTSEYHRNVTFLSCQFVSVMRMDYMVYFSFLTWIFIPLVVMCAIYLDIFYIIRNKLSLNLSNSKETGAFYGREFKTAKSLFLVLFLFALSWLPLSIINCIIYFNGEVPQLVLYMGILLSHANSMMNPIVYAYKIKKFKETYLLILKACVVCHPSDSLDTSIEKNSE
The test can be described thus: Agonist activity against adenosine 3 receptor (CHO cells, forskolin-enhanced cAMP/SPAP reporter). As to conditions: CHO cells transfected with human receptor; forskolin-enhanced cAMP via SPAP; mean of all the versions tested. The procedure: as §1, §2

A further test has as its target adenosine 2a receptor (Homo sapiens, UniProt P29274). The test can be described thus: Agonist activity against adenosine 2a receptor (CHO cells, cAMP/SPAP reporter). Particulars: CHO cells transfected with human receptor; basal cAMP via SPAP; mean of all the versions tested. On the procedure:
as §1, §2

Counter-ions that a name gives are not always drawn.

adenosine 2a receptor, sequence (P29274 whole entry): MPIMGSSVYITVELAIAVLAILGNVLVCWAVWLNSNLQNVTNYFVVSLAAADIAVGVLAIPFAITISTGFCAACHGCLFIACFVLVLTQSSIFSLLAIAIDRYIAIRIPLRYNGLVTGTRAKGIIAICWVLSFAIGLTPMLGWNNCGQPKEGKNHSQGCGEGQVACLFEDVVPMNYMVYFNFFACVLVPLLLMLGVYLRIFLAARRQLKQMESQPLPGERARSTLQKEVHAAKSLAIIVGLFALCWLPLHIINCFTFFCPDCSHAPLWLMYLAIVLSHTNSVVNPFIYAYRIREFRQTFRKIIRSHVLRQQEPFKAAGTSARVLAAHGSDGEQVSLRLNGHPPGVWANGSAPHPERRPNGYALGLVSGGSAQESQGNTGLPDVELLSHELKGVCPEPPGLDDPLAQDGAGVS

Turning to `CCn1nnc(C2OC(n3cnc4c(NCC(c5ccccc5)c5ccccc5)nc(NC5CCNC5)nc43)C(O)C2O)n1` [Example 84, (2R,3R,4S,5R)-2-[6-(2,2-Diphenyl-ethylamino)-2-(pyrrolidin-3S-ylamino)-purin-9-yl]-5-(2-ethyl-2H-tetrazol-5-yl)-tetrahydro-furan-3,4-diol bis(Trifluoroacetate)], on adenosine 1 receptor, the “A1 EC50 as a ratio of that of NECA” value came out at 490.80. For the same compound, the “A3 EC50 as a ratio of that of NECA” value at adenosine 3 receptor is recorded as greater than 103. Besides, the “A2a EC50 as a ratio of that of NECA” value at adenosine 2a receptor amounted to 2.50.
The corresponding values for `CCn1nnc(C2OC(n3cnc4c(NCCN5CCOCC5)nc(NC(CO)Cc5ccccc5)nc43)C(O)C2O)n1` [Example 85, (2R,3S,4R,5R)-2-(2-Ethyl-2H-tetrazol-5-yl)-5-[2-(1S-hydroxymethyl-2-phenyl-ethylamino)-6-(2-morpholin-4-yl-ethylamino)-purin-9-yl]-tetrahydro-furan-3,4-diol Formate] are 192.90, greater than 179 and 6.11.
Consider `CCn1nnc([C@H]2O[C@@H](n3cnc4c(N)nc(NCc5ccccc5CO)nc43)[C@H](O)[C@@H]2O)n1.O=C(O)C(F)(F)F` [Example 86, (2R,3R,4S,5R)-2-[6-Amino-2-(2-hydroxymethyl-benzylamino)-purin-9-yl]-5-(2-ethyl-2H-tetrazol-5-yl)-tetrahydro-furan-3,4-diol Trifluoroacetate], for which the “A1 EC50 as a ratio of that of NECA” value at adenosine 1 receptor is reported as 16.90. For the same compound, the “A3 EC50 as a ratio of that of NECA” value at adenosine 3 receptor is recorded as greater than 179. Besides, on adenosine 2a receptor, the “A2a EC50 as a ratio of that of NECA” value is listed as 2.16.
For `CCC(CC)Nc1nc(NC2CCC(N)CC2)nc2c1ncn2C1OC(c2nnn(C)n2)C(O)C1O.O=CO.O=CO` [Example 87, (2R,3R,4S,5R)-2-[2-(trans-4-Amino-cyclohexylamino)-6-(1-ethyl-propylamino)-purin-9-yl]-5-(2-methyl-2H-tetrazol-5-yl)-tetrahydro-furan-3,4-diol Diformate] the same measures were 348.11, greater than 320 and 1.61.
The corresponding values for `CCC(CC)Nc1nc(NC2CCCC2O)nc2c1ncn2C1OC(c2nnn(C)n2)C(O)C1O.O=CO.O=CO` [Example 88, (2R,3R,4S,5R)-2-[6-(1-Ethyl-propylamino)-2-(2R-hydroxy-(R)-cyclopentylamino)-purin-9-yl]-5-(2-methyl-2H-tetrazol-5-yl)-tetrahydro-furan-3,4-diol Diformate] are greater than 11750.00, greater than 89 and 4.53.
In the case of `CCC(CC)Nc1nc(NCCc2ccccn2)nc2c1ncn2C1OC(c2nnn(C)n2)C(O)C1O.O=CO.O=CO` [Example 89, (2R,3R,4S,5R)-2-[6-(1-Ethyl-propylamino)-2-(2-pyridin-2-yl-ethylamino)-purin-9-yl]-5-(2-methyl-2H-tetrazol-5-yl)-tetrahydro-furan-3,4-diol Diformate], the “A1 EC50 as a ratio of that of NECA” value on adenosine 1 receptor is given as greater than 9363.00. For the same compound, the “A3 EC50 as a ratio of that of NECA” value on adenosine 3 receptor is on record as greater than 243. For the same compound, the “A2a EC50 as a ratio of that of NECA” value on adenosine 2a receptor is on record as 2.22.
Turning to `CCC(CC)Nc1nc(NCCN2CCCC2)nc2c1ncn2C1OC(c2nnn(C)n2)C(O)C1O.O=CO.O=CO` [Example 90, (2R,3R,4S,5R)-2-[6-(1-Ethyl-propylamino)-2-(2-pyrrolidin-1-yl-ethylamino)-purin-9-yl]-5-(2-methyl-2H-tetrazol-5-yl)-tetrahydro-furan-3,4-diol Diformate], the “A1 EC50 as a ratio of that of NECA” value on adenosine 1 receptor stood at 245.90. Besides, the “A3 EC50 as a ratio of that of NECA” value on adenosine 3 receptor is reported as greater than 267. Also, the “A2a EC50 as a ratio of that of NECA” value at adenosine 2a receptor was 2.41.
The corresponding values for `CCC(CC)Nc1nc(NCCN2CCOCC2)nc2c1ncn2C1OC(c2nnn(C)n2)C(O)C1O.O=CO.O=CO` [Example 91, (2R,3R,4S,5R)-2-[6-(1-Ethyl-propylamino)-2-(2-morpholin-4-yl-ethylamino)-purin-9-yl]-5-(2-methyl-2H-tetrazol-5-yl)-tetrahydro-furan-3,4-diol Diformate] are greater than 7461.00, greater than 270 and 1.75.
In the case of `Cn1nnc(C2OC(n3cnc4c(NCC(c5ccccc5)c5ccccc5)nc(NC5CCC(N)CC5)nc43)C(O)C2O)n1.O=CO.O=CO` [Example 93, (2R,3R,4S,5R)-2-[2-(trans-4-Amino-cyclohexylamino)-6-(2,2-diphenyl-ethylamino)-purin-9-yl]-5-(2-methyl-2H-tetrazol-5-yl)-tetrahydro-furan-3,4-diol Diformate], the “A1 EC50 as a ratio of that of NECA” value on adenosine 1 receptor is 922.00. For the same compound, the “A3 EC50 as a ratio of that of NECA” value at adenosine 3 receptor is greater than 153. Moreover, the “A2a EC50 as a ratio of that of NECA” value at adenosine 2a receptor stood at 5.07.
The corresponding values for `Cn1nnc(C2OC(n3cnc4c(NCC(c5ccccc5)c5ccccc5)nc(NC5CCNC5)nc43)C(O)C2O)n1` [Example 94, (2R,3R,4S,5R)-2-[6-(2,2-Diphenyl-ethylamino)-2-(pyrrolidin-3R-ylamino)-purin-9-yl]-5-(2-methyl-2H-tetrazol-5-yl)-tetrahydro-furan-3,4-diol Diformate] are 385.90, greater than 411 and 2.39.
The corresponding values for `Cn1nnc(C2OC(n3cnc4c(NCC(c5ccccc5)c5ccccc5)nc(NC(CO)Cc5ccccc5)nc43)C(O)C2O)n1` [Example 95, (2R,3R,4S,5R)-2-[6-(2,2-Diphenyl-ethylamino)-2-(1S-hydroxymethyl-2-phenyl-ethylamino)-purin-9-yl]-5-(2-methyl-2H-tetrazol-5-yl)-tetrahydro-furan-3,4-diol Formate] are 4687.00, greater than 153 and 2.10.
The corresponding values for `Cn1nnc([C@H]2O[C@@H](n3cnc4c(NCC(c5ccccc5)c5ccccc5)nc(N[C@@H]5CCC[C@H]5O)nc43)[C@H](O)[C@@H]2O)n1.O=CO` [Example 96, (2R,3R,4S,5R)-2-[6-(2,2-Diphenyl-ethylamino)-2-(2R-hydroxy-(R)-cyclopentylamino)-purin-9-yl]-5-(2-methyl-2H-tetrazol-5-yl)-tetrahydro-furan-3,4-diol Formate] are 5177.00, greater than 153 and 2.14.
For the compound `Cn1nnc(C2OC(n3cnc4c(NCC(c5ccccc5)c5ccccc5)nc(NCCc5ccccn5)nc43)C(O)C2O)n1.O=CO.O=CO` (stereo not drawn) [Example 97], the “A1 EC50 as a ratio of that of NECA” value on adenosine 1 receptor is listed as 1413.00. Besides, at adenosine 3 receptor, the “A3 EC50 as a ratio of that of NECA” value is greater than 240. In addition, the “A2a EC50 as a ratio of that of NECA” value on adenosine 2a receptor stood at 2.34.
For `Cn1nnc(C2OC(n3cnc4c(NCC(c5ccccc5)c5ccccc5)nc(NCCN5CCOCC5)nc43)C(O)C2O)n1.O=CO.O=CO` (stereo not drawn) [Example 98] the same measures were 126.50, greater than 160 and 2.28.
As to `CC(C)C(CO)Nc1nc(NCC(c2ccccc2)c2ccccc2)c2ncn(C3OC(c4nnn(C)n4)C(O)C3O)c2n1` [Example 99, (2R,3R,4S,5R)-2-[6-(2,2-Diphenyl-ethylamino)-2-(1S-hydroxymethyl-2-methyl-propylamino)-purin-9-yl]-5-(2-methyl-2H-tetrazol-5-yl)-tetrahydro-furan-3,4-diol Formate], the “A1 EC50 as a ratio of that of NECA” value at adenosine 1 receptor was 87.00. In addition, the “A3 EC50 as a ratio of that of NECA” value at adenosine 3 receptor is on record as greater than 130. Further, the “A2a EC50 as a ratio of that of NECA” value on adenosine 2a receptor worked out at 4.82.
The corresponding values for `CCn1nnc(C2OC(n3cnc4c(NCc5cccc(I)c5)nc(NC5CCC(N)CC5)nc43)C(O)C2O)n1.O=CO.O=CO` [Example 100, (2R,3R,4S,5R)-2-[2-(trans-4-Amino-cyclohexylamino)-6-(3-iodo-benzylamino)-purin-9-yl]-5-(2-ethyl-2H-tetrazol-5-yl)-tetrahydro-furan-3,4-diol Diformate] are 292.70, greater than 127 and 5.71.
As for `CCn1nnc(C2OC(n3cnc4c(NC5CCCC5)nc(NC5CCC(N)CC5)nc43)C(O)C2O)n1.O=CO.O=CO` [Example 101, (2R,3R,4S,5R)-2-[2-(trans-4-Amino-cyclohexylamino)-6-cyclopentylamino-purin-9-yl]-5-(2-ethyl-2H-tetrazol-5-yl)-tetrahydro-furan-3,4-diol bis(Formate)], the “A1 EC50 as a ratio of that of NECA” value on adenosine 1 receptor was 39.00. The “A3 EC50 as a ratio of that of NECA” value on adenosine 3 receptor is reported as greater than 195. Besides, the “A2a EC50 as a ratio of that of NECA” value on adenosine 2a receptor is listed as 1.51.
